Experiments:
[1] = test system: injured spinal cord; assay: Spinal cord injury, immunostaining and quantitative analysis (NeuN, GFAP, lesion volume); format: in vivo, rat; details: for lesion volume compared to controls: rat, in vivo; for increase in number of peri-lesional neurons (NeuN) compared to controls: systemic application for 6 weeks
[2] = test system: RGC axons in injured optic nerve; assay: Optic nerve crush, RGC axon regeneration (GAP-43) and intraretinal integrity; format: in vivo, rat; details: for intraretinal integrity of RGC axons (CTB-FITC): after optic nerve crush
Protocol: All animals were female Sprague-Dawley rats weighing 250-300 g, which were kept in a pathogen free environment. […] Injections were performed using a 10-μl Hamilton syringe actuated by a computer controlled Picopump (World Precision Instruments). […] The needle was left in place for 10 min after each injection and slowly withdrawn to prevent reflux of the injected solutions up the needle tract.
Additionally, for crushing nerve surgical procedures, animals were placed in a stereotaxic frame and ventilated with isoflurane (2%; 0.8 L/min O2) through a gas anesthesia mask. […] The optic nerve was crushed using fine self-closing forceps for 6 seconds. Eventually, the orbital contents were gently returned to their original location and the initial incision was closed. Following surgery, under a heat lamp, animal were maintained at 37° C. in the normothermic condition and they were given Ketoprofen (5 mg/mL, dosage for rats: 0.1 mL/100 g bodyweight) and sterile saline to ease postsurgical recovery.
In order to evaluate the effects of 4Ig, N-Raft, and MβCD on RGC survival and regeneration after optic nerve crush, 4 μl intraocular injection of 4Ig (250 ng/μl) and N-Raft (150 ng/μl) solutions were delivered at 3 and 10 days after injury. Additionally, these two groups received 4Ig and N-Raft in a dose of 1 mg/kg, via intrajugular vein at 3 and 10 days postcrush. Separately, animals in MβCD group, received intraperitoneal injection of MβCD at 1000 mg/kg/week for 3 weeks after nerve crush on a once-a-day schedule.
Firstly, RGC axon regeneration and intraretinal integrity was examined at twenty-one days after optic nerve crush. […]. CTB-FITC was anterogradly transported within the axon to reach the synaptic membrane.
RGC axon regeneration was examined at twenty-one days after optic nerve crush. Animals were perfused with 4% paraformaldehyde via the ascending aorta, while the descending aorta was clamped off, and the optic nerves were removed. The nerves were post-fixed overnight in the same fixative solution, plus 30% sucrose in PBS for 7 days at […]. The fixed nerves were consecutively sectioned at 14 μm in thickness with a Leica CM1950 cryostat microtome. The slides were first incubated overnight at 4° C. in primary antisera directed against growth associated protein-43 (GAP-43), a marker of regenerating retinal ganglion cell axons in both neonatal and adult RGCs. Primary antisera (rabbit polyclonal, 1:250, Cell Signaling Technology/NEB) were diluted in PBS containing 0.3% Triton X-100 and 3% normal goat serum. Following primary antibody incubation, sections were rinsed three times for 15 minutes in PBS and followed by three hours incubation with FITC labeled secondary antibody at room temperature.
The slides were then rinsed three times for 15 minutes in PBS before cover slipping with 50:50 glycerol/PBS. The total number of regenerating axon growth cones within bins of the optic nerve, beginning anterior to the crush site and proceeding distally, were quantified. The bins were as follows: 0-250, 250-500, and >500 μm. A total of four equally spaced sections through the width of each optic nerve were examined and quantified using a Leica DM LFSA microscope (20× objective) with an Andor iXon 885+ camera, with EMgain applied.

[3] = test system: Neogenin association with lipid rafts; assay: Lipid raft fractionation of injected chick brain/tecta; format: in vivo; details: injected into chick brain/optic tectum one day before fractionation
Protocol: Injected chick E8 tecta (4Ig, 2 mg/mL; N-raft, 1 mg/mL; methyl-β-cyclodextrin (10 mM)) or transfected cells (Neogenin and RGMa) were collected 24 hours later, lysed and placed at the bottom of a sucrose density gradient (0.9-0.8-0.75-0.7-0.6-0.5-0.4-0.2 M) and centrifuged at 38,000 rpm for 16 hours in SW 60 rotor (Beckman Instruments Inc.).
Proteins (4Ig, 2 mg/ml; N-Raft, 1 mg/mL; RGMaΔ, 5 mg/ml; methyl-β-cyclodextrin (10 mM)) were injected in chick E8 optic tectum and tecta were collected 24 hrs later. HEK cells were transfected with Neogenin and different RGMa constructs and collected 48 hrs later. For treatment with RGMaΔ, Neogenin transfected cells were treated with RGMaΔ (2 mg/ml) and BMP-2 (100 nM) and further incubated for 1 hr at 37° C. Tecta (3 tecta for each set of experiment) and/or cells were solubilized in chilled buffer (25 mM Tris-HCl, pH 7.4, 150 mM NaCl, 5 mM EDTA and protease inhibitor cocktail) and passed through G25 and G30 needles, respectively, and centrifuged at 800 g for 10 min at 4° C. Cold Triton X-100 was added to the post nuclear supernatant to a final concentration of 1% and incubated on ice for 1 hour. 2× volume of 2M sucrose was added and sample placed at the bottom of a sucrose density gradient (0.9-0.8-0.75-0.7-0.6-0.5-0.4-0.2 M) and centrifuged at 38,000 rpm for 16 hours in SW 60 rotor (Beckman Instruments Inc.). 400 μl fractions were collected from top (top numbered 1 and next eight fractions numbered consequently) and stored at −80° C.
As such, it was examined if overexpressing recombinant 4Ig and N-Raft competed with the endogenous 4Ig and N-Raft domains to displace Neogenin from the lipid raft fractions to the non-lipid raft fractions. Specifically, N-Raft, 4Ig-domain, or a control peptide, which was amino acid residues 50-99 of RGMa (also referred to herein as “N-RGMa^50-99”), was injected into the optic tectum at E8. The tecta were collected a day later for fractionation-analyses.

Molecule | lesion volume compared to controls [1] | increase in number of peri-lesional neurons (NeuN) compared to controls [1] | average number of axons per section, 250-500 μm ([2]; IP injection) | average number of axons per section, greater than 500 μm ([2]; IP injection) | average number of axons per section, less than 250 μm ([2]; IP injection) | average number of axons per section higher than controls ([2]; IP injection, all distances) | intraretinal integrity of RGC axons (CTB-FITC) [2] | Neogenin localization in membrane fractions [3] | regeneration beyond the lesion site ([2]; 21 days after crush) | increase of NeuN positive cells in cross-sections of the spinal cord ([1]; intrathecal application over 6 weeks) | increase in number of regenerating axons relative to controls ([2]; 21 days after crush) | number of regenerating axons, greater than 500 μm ([2]; 21 days after crush, controls 76±24) | number of regenerating axons, 250-500 μm ([2]; 21 days after crush, controls 108±12) | number of regenerating axons, less than 250 μm ([2]; 21 days after crush, controls 224±36)
methyl-β-cyclodextrin [MβCD, reference compound] | did not significantly vary | about 2 fold | 10.7±0.9 | 8.4±1.4 | 23.7±1.2 | 7.1 fold | thicker axon bundles throughout the retina | recovered in the non-lipid raft fraction |  |  |  |  |  | 
N-Raft: peptide spanning amino acids 28-73 of RGMa (SEQ ID NO:2) (SPCKILKCNSEFWAATSGSHHLGAEETPEFCTALRAYAHCTRRTAR; N-Raft - amino acids 28-73 of RGMa) |  |  |  |  |  |  | thicker axon bundles throughout the retina | relocalized from the lipid raft fractions to the heavy fractions | comparable to 4Ig |  |  |  |  | 
4Ig: four immunoglobulin-like domains of Neogenin, amino acids 1 to 383 of Accession No. AAC59662 (SEQ ID NO:1) (protein, listed as Gallus gallus, Neogenin - Accession No. AAC59662) RSGPRSPLTGSVVRTFTPFYFLVEPMDILSVRGASVIMNCSSYCETPPKIEWKKDGTLLNLVSDDRRQLLPDGSLLINSVVHSKHNKPDEGYYQCVATVESLGSIVSRTAKLTVAGLPRFTSQPELSSVYKGNSAILNCEVNVDLAPFVRWEQDRQPLSLDDRVFKLPSGALLIGNATDTDGGFYRCVIESGGTPKYSEEAELKILPDPEEPQSLVFVRQPSSLTKVTGQNAVFPCVAGGFPTPYVRWTKNGEELITEDSERFALRAGGSLLISDVTEEDVGTYTCIADNENETIEAQAELAVQVPPEFLKRPANIYAHESMDIVFECEVTGKPTPTVKWVKNGDVVIPSDYFKIVKEHNLQVLGLVKSDEGFYQCIAENDVGNAQAGAQLIILDLDVAIPTLPPTSLTSATNDHLAPATTGPLPTAPRDVVATLVSTRFIRLTWRTPVSDPQGDNLTYSIFYTKEGINRERVENTSRPGETQVMIQNLMPETVYVFRVVAQNKHGHGESSAPLKVATQPEVQLPGPAPNIRAYAGSPTSVTVTWETPLSGNGEIQNYKLYYMEKGQDSEQDVDVAGLSYTITGLKKYTEYSFRVVAYNKHGPGVSTQDVVVRTLSDVPSAAPQNLTLEARNSKSIMLHWQPPPAGTHSGQITGYKIRYRKVSRKSDVTESVGGTQLFQLIEGLERGTEYNFRIAAMTVNGTGPATDWVSAETFESDLDESRVPEVPSSLHVRPLVTSIVVSWTPPENQNIVVRGYAIGYGIGSPHAQTIKVDYKQRYYTIENLDPSSHYVITLKAFNNVGEGIPLYESAVTRPHSDTSEVDLFVINAPYTPVPDPSPMMPPVGVQASILSHDTIRITWADNSLPKNQKITDARYYTVRWKTNIPANTKYKTANATTLSYLVTGLKPNTLYEFSVMVTKGRRSSTWSMTAHGTTFELVPTSPPKDVTVVSKEGKPRTIIVNWQPPSEANGKITGYIIYYSTDVNAEIHDWVIEPVVGNRLTHQIQELTLDTPYYFKIQARNSKGMGPMSEAVQFRTPKAESSDKMPNDQASGSAGKGSRPVDVGPDYKPPLSGSNSPHGSPTSPLDSNMLLVIIVSVGVITIVIVVIVAVFCTRRTTSHQKKKRAACKSVNGSHKYKGNSKDVKPPDLWIHHERLELKPIDKSPDPNPIMTDTPIPRNSQDITPVDNSMDSNIHQRRNSYRGHESEDSMSTLAGRRGMRPKMMMPFDSQPPQPVISAHPIHSLDNPHHHFHSGSLASPTRSYLHHQVSPWPVGTSMSHSDRANSTESVRNTPSSDTMPASSSQPCADHQDPDSSSGAYLGSAQEEDAAQSLPTAHVRPSHPLKSFAVPAVPAAGSAYDPTLPSTPLLTQQAPSHPVHSVKTASIGTLGRTRPPMPVVVPSAPDVQETTRMLEDSESSYEPDELTKEMAHLEGLMKDLNAITTA | did not significantly vary | about 2 fold |  |  |  |  | thicker axon bundles throughout the retina | relocalized from the lipid raft fractions to the heavy fractions |  | about 2 fold | 5.7 fold | 410±64 | 640±128 | 1134±68

Source: patent publication US11497796B2, “Agents directed against a cis RGMa/neogenin interaction or lipid rafts and use of the same in methods of treatment” (UNIVERSITY HEALTH NETWORK, priority 2013, dated 2022)
